Experimental data from US20120114714A1, “METHOD FOR THE TREATMENT AND PREVENTION OF ERECTILE DYSFUNCTION” (priority 2006, published 2012).

Assays:
[1] = system: penile corpus cavernosum smooth muscles; assay: Relaxation of phenylephrine-contracted penile corpus cavernosum smooth muscle sections in organ bath; set-up: species or system New Zealand white rabbit; details: for Relaxation (%): conc. 10^−4 M, section contracted with 10^−4 M phenylephrine
Excerpt: A New Zealand white rabbit (2.5 to 3.0 kg) was anesthetized and the overall penis was then dissected from the rabbit. The penile corpus cavernosum smooth muscles were separated from the tunica albuginea in a low-temperature Tyrode's solution aerated with a 95% O2-5% CO2 gas mixture, while observing with a dissection microscope, to prepare a penis section. The penis section was fixed in an organ bath (10 cc) containing a Tyrode's solution. At this time, the one end of the penis section was fixed on the bottom of the organ bath, and a variation in isometric tension of the penile corpus cavernosum smooth muscles was then measured with a force displacement transducer at the other end thereof. After reaching an equilibrium state, the penile section was contracted by treatment of 10^−4 M phenylephrine.
According to the drug used to treat the penile section, the experimental groups used herein were divided into six groups, i.e., i) a group with administration of SNP as a NO donor, ii) a group with administration of Zaprinast as an inhibitor against PDE-5, an enzyme that mediates hydrolysis of c-GMP, a group with administration of acetylcholine that acts on the nervous system, iv) a group with administration of metformin, one of conventional AMPK activators, v) a group with administration of AICAR (5-aminoimidazole-4-carboxamide-1-beta-D-ribofuranoside), and vi) a group with administration of the compound 1 according to the present invention. These groups were compared with one another, in view of relaxation (%) of the penile corpus cavernosum.

diabetes-induced rats = assay: Internal pressure of penile corpus cavernosum after electrostimulation in STZ diabetes-induced rats; format: in vivo, Sprague-Dawley white rats; details: oral for 5 weeks, AICAR 500 mg/kg, compound 1 250 mg/kg, FIG. 7
Excerpt: In order to confirm in vivo whether penile erection of a diabetes-induced rat has an influence on the internal pressure of the penile corpus cavernosum, 23 Sprague-Dawley white rats (about 300 g) are divided into a normal control group (Group I, n=6), a diabetes-induced control group (Group II, n=4), a group with administration of AICAR following the diabetes-induction (Group III, n=6), and a group with administration of the compound 1 (Group IV, n=7).
STZ (streptozotocin) was used to induce diabetes, and the AICAR and the compound 1 were orally administered in dosages of 500 mg/kg and 250 mg/kg, respectively, for 5 weeks. Each of the experimental groups was systemically anesthetized, intubated into one-side of the carotid in order to measure blood pressure, a electrostimulation-purpose catheter was set in the penile corpus cavernosum nerves in the cavum pelvis, and the internal pressure of the penile corpus cavernosum was measured. Electrostimulation was applied to the group for one minute (frequency: 10 Hz, delay: 4 ms, duration: 5 ms, volt: 3V). An increase in internal pressure of the groups was measured, and the groups were compared with one another in view of the increase in internal pressure.

[2] = system: penile corpus cavernosum smooth muscles; assay: Compound 1-induced relaxation upon blocking of the NO pathway (L-NAME, methylene blue); set-up: species or system New Zealand white rabbit; details: FIG. 4
Excerpt: To confirm the effects of the compound 1 on relaxation of the penile corpus cavernosum smooth muscles upon blocking of a NO pathway, the penile corpus cavernosum smooth muscle sections were contracted by the treatment of phenylephrine, relaxed by the treatment of the compound 1, and then sequentially treated with methylene blue as an inhibitor against guanylate cyclase that helps production of c-GMP and with L-NAME (L-nitroarginine methyl ester) that inhibits production of NO via inhibitory activity against eNOS.

[3] = system: endothelial nitric oxide synthase (eNOS); assay: Phosphorylation of eNOS in HUVEC cells (anti-pS1177 eNOS); format: cell-based; details: compound 1 10 uM, FIG. 3
Description: In order to ascertain whether the compound 1 acting as an AMPK activator is implicated in the production of NO, phosphorylation to promote the activity of endothelial nitric oxide synthase (eNOS) was measured. So as to confirm the phosphorylation of eNOS through the compound 1, HUVEC cells were seeded on a 60 mm plate at 1×10^5 in an EBM2/5% FBS medium and cultured for 24 hours. The medium was replaced by a serum-free EBM2 medium and the treatment with the compound 1 (10 uM) was performed for a predetermined period. An anti-pS1177 eNOS was used to measure the phosphorylated eNOS.

[4] = system: penile corpus cavernosum smooth muscles; assay: Compound 1-induced relaxation after endothelium removal (CHAPS) and HO-2 inactivation (ZnPP); set-up: species or system New Zealand white rabbits
Excerpt: To ascertain the pharmacological mechanism the compound 1 acts on the relaxation of the penile corpus cavernosum smooth muscles in the New Zealand white rabbits, the smooth muscle sections were relaxed by the treatment of the compound 1 and endothelial cells were then removed from the smooth muscle sections using 10^−4 M of CHAPS (3-[(3-cholamidopropyl) dimethylammonio]-1-propanesulfonate, 0.3% in buffer solution; Sigma) as a lysis buffer. Subsequently, as another neurotransmitter, zinc-protoporphyrin-IX (ZnPP) was administrated thereto, which inactivates heme oxygenase-2 (HO-2) that produces carbon monoxide (CO) that is in vivo produced by blood and acts as a vasodilator.

[5] = target: Phosphodiesterase type 5 (PDE 5) (Homo sapiens, UniProt O76074); details: cited from earlier work

For NC(=O)c1ncn([C@@H]2O[C@H](CO)[C@@H](O)[C@H]2O)c1N [AICAR, 5-aminoimidazole-4-carboxamide-1-beta-D-ribofuranoside, reference compound], the “Relaxation (%)” value [1] was 10% and the “average of the highest internal pressure increase of the penile corpus cavernosum after electrostimulation” value (diabetes-induced rats) was 4.3±1.0 mmHg.

For CN(C)C(=N)N=C(N)N [Metformin, metformin], the “Relaxation (%)” value [1] was 0.1%.

With CC(=O)OCC[N+](C)(C)C [Acetylcholine, acetylcholine] the “Relaxation (%)” value [1] was 21%.

In the case of CCCOc1ccccc1-c1nc2nn[nH]c2c(=O)[nH]1 [Zaprinast], the “Relaxation (%)” value [1] is reported as 36%.

With CC1(C)CCC2=C(O1)c1ccccc1C(=O)C2=O [Compound 1, β-lapachone] the “Relaxation (%)” value [1] was 92%, the “relaxation effects of penile corpus cavernosum smooth muscles (FIG. 2)” value ([1]; concentration range of 10^−9 to 10^−7 M) was “about double that of the SNP-administration group” and the “relaxation caused by the compound 1 after L-NAME and methylene blue” value ([2]; 10^−3 M of L-NAME and 10^−3 M of methylene blue) was “partially inhibited”. The “inhibition of relaxation by methylene blue compared to the L-NAME-treatment group” value ([2]; methylene blue 10^−4 M) was “more greatly inhibited”, the “average of the highest internal pressure increase of the penile corpus cavernosum after electrostimulation” value (diabetes-induced rats) was 9.7±5.1 mmHg and the “phosphorylation of eNOS (p-eNOS) at 2 hours” value ([3]; 2 hours) was “not observed”. The “time at which phosphorylation of eNOS (p-eNOS) is maximized” value [3] was 30 min, the “relaxation of the CHAPS-administration group (no Znpp) relative to relaxation of the compound 1-administration group” value ([4]; 10^−4 M CHAPS, endothelial cells removed) was “about 45%” and the “relaxation of the ZnPP-administration group” value ([4]; CHAPS plus zinc-protoporphyrin-IX (ZnPP), FIGS. 5 and 6) was “almost completely inhibited”.

In the case of CCCc1nn(C)c2c(=O)[nH]c(-c3cc(S(=O)(=O)N4CCN(C)CC4)ccc3OCC)nc12 [Viagra], the “selectivity of PDE 5 inhibition” value [5] is given as ≥ 4,000 folds.
